Literature values in patent US20250009664A1, “DOSAGE FORM FOR INTRA-[…] INJECTION […] USE IN THE TREATMENT OF CRYSTAL-AND NON-CRYSTAL […] IN[…]” (priority 2021, published 2025).

Conditions: literature

Question: With `COc1cc2c(c(OC)c1OC)-c1ccc(OC)c(=O)cc1[C@@H](NC(C)=O)CC2` [colchicine, N-[(7S)-1,2,3,10-tetramethoxy-9-oxo-6,7-dihydro-5H-benzo[a]heptalen-7-yl]acetamide] as the compound, how does the lethal dose read?
Answer: 0.8 mg/kg

Question: And the toxicity limit?
Answer: 0.1 mg/kg
